From US9550811B2, “Peptide scaffold design” (BIONOR IMMUNO AS, priority 2010, dated 2017) come the findings set out here.

Assay [1] relates to human PBMCs. The format is cell-based.
The subject of the next assay is DC-cells. The assay can be described thus: Cell penetration assay: staining for biotinylated peptides, dendritic cells gated as CD11c+. The class given is cell-based, human. Particulars: low concentration of peptides (208 uM). The procedure: A set of peptides were biotinylated on N-terminal, and different combinations of aminoacids, with respect to length and type, were added to the sequence box X^1, X^3 and X^4 in the peptides as illustrated by the diagram below. The peptides were tested on cells grown from one individual blood donor.
(§1) 96-well U-bottom polystyrene plates (NUNC, cat no: 163320) were used for staining of human PBMCs. Briefly, 8 ul of N- or C-terminally biotinylated peptides according to table 1 or table 2 (i.e. 5 mM, 2.5 mM & 1.25 mM tested for each peptide) were incubated at 37° C. for 2 h with 40 ul of PBMC (12.5×10^6 cells/ml) from blood donors. Cells were then washed 3× with 150 ul of Cellwash (BD, cat no: 349524), followed by resuspension of each cell pellet with 100 ul of Trypsin-EDTA (Sigma, cat no: T4424), then incubated at 37° C. for 5 min. Trypsinated cells were then washed 3× with 150 ul of Cellwash (BD, cat no: 349524), followed by resuspension with BD Cytofix/Cytoperm™ plus (BD, cat no: 554715), then incubated at 4° C. for 20 min according to manufacturer. Cells were then washed 2× with 150 ul PermWash (BD, cat no: 554715). Cells were then stained with Streptavidin-APC (BD, cat no: 554067) & Anti-hCD11c (eBioscience, cat no: 12-0116) according to manufacturer at 4° C. for 30 min aiming to visualize biotinylated peptides & dendritic cells, respectively. Cells were then washed 3× with 150 ul PermWash, followed by resuspension in staining buffer (BD, cat no: 554656) before flow cytometry. Dendritic cells were gated as CD11c+ events outside lymphocyte region (i.e. higher FSC & SSC signals than lymphocytes). 200 000 total cells were acquired on a FACSCanto II flow cytometer with HTS loader, and histograms for both total cells & dendritic cells with respect to peptide-fluorescence (i.e. GeoMean) were prepared.
As shown in table 4 the peptides according to the invention had the ability to allocate through the cell membrane.

Assay [2] concerns human PBMCs. The assay is described as follows: Extracellular staining for biotinylated peptides (flow cytometry). The class given is cell-based. The procedure: as §1, with “peptide; all peptides manufactured by Schafer)” for “peptide)”, “349524),” for “349524), followed by resuspension of each cell pellet with 100 ul of Trypsin-EDTA (Sigma, cat no: T4424), then incubated at 37° C. for 5 min. Trypsinated cells were then washed 3× with 150 ul of Cellwash (BD, cat no: 349524), followed by resuspension with BD Cytofix/Cytoperm™ plus (BD, cat no: 554715), then incubated at 4° C. for 20 min according to manufacturer. Cells were then washed 2× with 150 ul PermWash (BD, cat no: 554715). Cells were”, “of Cellwash (BD, cat no: 349524),” for “PermWash,”

Assay [3] concerns PBMC samples from HCV patients. The assay can be described thus: Human IFN-gamma cytotoxic T-cell (CTL) response by ELISPOT assay. The class given is cell-based. The procedure:
Human IFN-Gamma Cytotoxic T-Cell (CTL) Response by ELISPOT Assay
Briefly, at day 1, PBMC samples from HCV patients were incubated in flasks (430 000 PBMCs/cm2) for 2 h at 37° C., 5% CO2 in covering amount of culture media (RPMI 1640 Fisher Scientific; Cat No. PAAE15-039 supplemented with L-Glutamine, (MedProbe Cat. No. 13E17-605E, 10% Foetal Bovine serum (FBS), Fisher Scientific Cat. No. A15-101) and Penicillin/Streptomycin, (Fisher Acientific Cat. No. P11-010) in order to allow adherence of monocytes. Non-adherent cells were isolated, washed, and frozen in 10% V/V DMSO in FBS until further usage. Adherent cells were carefully washed with culture media, followed by incubation at 37° C. until day 3 in culture media containing 2 μg/ml final concentration of hrGM-CSF (Xiamen amoytop biotech co, cat no: 3004.9090.90) & 1 μg/ml hrIL-4 (Invitrogen, Cat no: PHC0043), and this procedure was then repeated at day 6. At day 7, cultured dendritic cells (5 000-10 000 per well) were added to ELISPOT (Millipore multiscreen HTS) plates coated with 0.5 μg/well anti-human γ Interferon together with thawed autologous non-adherent cells (200 000 per well), antigen samples (1-8 ug/ml final concentration for peptide antigens; 5 ug/ml final concentration for Concanavalin A (Sigma, Cat no: C7275) or PHA (Sigma, Cat no: L2769)) & anti-Anergy antibodies (0.03-0.05 ug/ml final concentration for both anti-PD-1 (eBioscience, cat no: 16-9989-82) & anti-PD-L1 (eBioscience, cat no: 16-5983-82)). Plates were incubated overnight and spots were developed according to manufacturer. Spots were read on ELISPOT reader (CTL-ImmunoSpot® S5 UV Analyzer).

[4] abbreviates: Example 4, negative control = 1.00.

Several values for one entry are separate records, joined by “and”; a condition that tells them apart may be missing. Identical values can stand only once. Like-named read-outs stand apart in the source and are kept apart here.

As for “RQIKIWFQNRRMKWKK [P-biotin, reference compound]”, the “Intracellular staining, median” value in the assay on human PBMCs [1] was determined as 2.73. Also, the “Results on DC-cells (geomean peptide-fluorescence)” value (“Results on DC-cells” for short) in the assay on DC-cells (BC43) is 26212 and 33545. The “Extracellular staining, median” value with human PBMCs [2] (setting [4]) was 9.15.

For the substance “PVVHLTLRQAGDDFSR [N-biotin, reference compound]”, in the assay with human PBMCs [1], the “Intracellular staining, median” value is reported as 1.00. Also, the “Results on DC-cells” value in the assay with DC-cells (BC 16) was 3591 and 2271; with DC-cells (BC 16, listed as n-biotin), 3745; in the assay on DC-cells (BC43) it was 3631; in the assay with DC-cells (BC43, listed as n-biotin), 1967. In addition, in the assay on human PBMCs [2] (setting [4]), the “Extracellular staining, median” value turned out to be 1.00.

With “Concanavalin A [ConA, reference compound]”, the “IFN-g ELISPOT (T-cell spots)” value in assay [3] (Patient A (HCV patient)) was 5090 and 5035; in assay [3] (Patient B (HCV patient)), 2605 and 2725; in assay [3] (Patient C (HCV patient)), 1355 and 700; in assay [3] (Patient D (HCV patient)), 529 and 512.

For the substance WGYIPLVGAPLGRRVARALAHGVRV [compound 19], the “Intracellular staining, median” value with human PBMCs [1] amounted to 17.41. In addition, the “Results on DC-cells” value in the assay with DC-cells (BC 16) was 8417; in the assay on DC-cells (BC43), 6372. Moreover, in the assay with human PBMCs [2], the “Extracellular staining, median” value amounted to 1.37.

Regarding RRGYIPLVGAPLGBRVARALAHGVRV [51b], the “IFN-g ELISPOT (T-cell spots)” value in assay [3] (Patient A (HCV patient), listed as 310-51b) was 45 and 40; in assay [3] (Patient B (HCV patient), listed as 310-51b) it was 50 and 85; in assay [3] (Patient C (HCV patient), listed as 310-51b), 45 and 75; in assay [3] (Patient D (HCV patient), listed as 310-51b), 9 and 13. The entries for the “Results on DC-cells” value with DC-cells (BC 16) and in the assay with DC-cells (BC43) were 7000 and 6082, respectively.

On to “RRIRNLGRVIETLTGBRLZGYIPLIGA [compound 42]”, for which the “IFN-g ELISPOT (T-cell spots)” value is 75 and 80 in assay [3] (Patient A (HCV patient), listed as 310-42); 13 and 11 in assay [3] (Patient D (HCV patient), listed as 310-42). In addition, the results for the “Results on DC-cells” value in the assay with DC-cells (BC 16) and in the assay on DC-cells (BC43) were 74920 and 65811, respectively.

With RRSRNLGKVIDTLTCBRLMGYIPLVGA [42b], the “IFN-g ELISPOT (T-cell spots)” value is 90 and 115 in assay [3] (Patient A (HCV patient), listed as 310-42b); 60 and 80 in assay [3] (Patient B (HCV patient), listed as 310-42b); 13 and 11 in assay [3] (Patient D (HCV patient), listed as 310-42b). Moreover, the “Results on DC-cells” value in the assay on DC-cells (BC 16) was 61968; in the assay on DC-cells (BC43), 19181.
